These are literature values, as cited in article PMC8198792, “Prediction of Anticancer Peptides with High Efficacy and Low Toxicity by Hybrid Model Based on 3D Structure of Peptides” (International Journal of Molecular Sciences, 2021).

Like-named read-outs stand apart in the source and are kept apart here.

The subject of the series is cancer cell lines. More on the design: method as in 6 sources, ref CancerPPD [45] and SATPdb ||| ref CancerPPD/SATPdb ||| ref CancerPPD, SATPdb, Swissprot (PDB) ||| ref CancerPPD/SATPdb/Swissprot(PDB) ||| ref CancerPPD / SATPdb ||| ... Particulars: cited from earlier work. The source says:
Supplement ijms-22-05630-s001.zip/ACPs(seguence).xlsx, sheet "D1" | column: Activity || Supplement ijms-22-05630-s001.zip/ACPs(seguence).xlsx, sheet "D2" | column: Activity || Supplement ijms-22-05630-s001.zip/ACPs(seguence).xlsx, sheet "D3" | column: Activity || (+ 2 further places)

The mark [1] stands for this setting: ACPs dataset D4 (sheet "D4"), label 1 = ACP, 0 = non-ACP, ref CancerPPD / SATPdb.
Where [2] appears, read: ACPs dataset D5, sheet "D5", label 1 = ACP, 0 = non-ACP, ref CancerPPD [45] and SATPdb.
Where [3] appears, read: ACPs dataset D1, 1 = ACP (positive), 0 = non-ACP (negative), label taken from databases, ref CancerPPD [45] and SATPdb.
Where [4] appears, read: ACPs dataset D4 (sheet "D4"), label 1 = ACP (CancerPPD ID), 0 = non-ACP (non-anticancer AMP, SATPdb ID), ref CancerPPD [45] and SATPdb.
The mark [5] stands for this setting: ACPs dataset D1, label 1 = ACP, 0 = non-ACP (non-anticancer AMPs from SATPdb), ref CancerPPD/SATPdb.
The mark [6] stands for this setting: ACPs dataset D3 (supplement sheet "D3"), 1 = ACP, 0 = non-ACP, ref CancerPPD [45] and SATPdb.
Setting [7] is: ACPs dataset D5 (sheet "D5"), label 1 = ACP (positive set), 0 = non-ACP (negative set), ref CancerPPD [45] and SATPdb.
Where [8] appears, read: ACPs dataset D4 (sheet "D4"), label 1 = ACP, experimentally validated ACPs, ref CancerPPD [45] and SATPdb.
Where [9] appears, read: ACPs dataset D5 (sheet "D5"), label 1 = ACP (positive set), sequences with CancerPPD/SATPdb ID, ref CancerPPD, SATPdb.
Setting [10] is: ACPs dataset sheet D2, 1 = ACP (CancerPPD/SATPdb ID), 0 = non-ACP (Swissprot/PDB ID), ref CancerPPD, SATPdb, Swissprot (PDB).

On to GILGKLWEGFKSIV [satpdb13792], for which the Activity reads like this: (ACPs dataset D3 (sheet "D3"), label 1 = ACP, 0 = non-ACP, ref CancerPPD/SATPdb) 0; under setting [1], 0; under setting [2], 0.

Consider GILGNIVGMGKQVVCGLSGLC [satpdb10178], for which the Activity is, setting by setting: under setting [3], 0; under setting [4], 0.

“GILLDKLKNFAKTAGKGVLQSLLNTASCKLSGQC [satpdb12360]”: the Activity runs as follows: under setting [5], 0; under setting [4], 0.

Take GILNTIKSIASKLKRKAK [satpdb10259]: the Activity under setting [3] is 0 and the Activity under setting [4] was 0.

On to “GIPCAESCVWIPCTVTALLGCSCSNKVCYN [satpdb12637]”, for which the Activity was 0 under setting [5] and 0 under setting [4].

Take “GIPCGESCVWIPCISAAIGCSCKNKVCYRN [satpdb12462]”: the Activity is, setting by setting: under setting [5], 0; under setting [4], 0.

With “GIPCGESCVYIPCLTSAIGCSCKSKVCYRN [satpdb13250]”, the Activity under setting [5] is 0 and the Activity under setting [1] is 0.

For the sequence GIWDTIKSMGKVFAGKILQN [satpdb10030], the Activity is recorded as 0 under setting [3] and 0 under setting [4].

Turning to “GKIPVKAIKKAGAAIGKGLRAINIASTAHDVYSFFKPKHKKK [satpdb13363]”, the Activity is, setting by setting: under setting [5], 0; under setting [1], 0.

As for GKWKKILGHLIR [compound 3645], the Activity runs as follows: under setting [6], 1; under setting [4], 1; under setting [7], 1.

Take GKWKSLLKHILK [compound 3653]: the Activity is, setting by setting: under setting [6], 1; under setting [4], 1; under setting [7], 1.

GKWLSLLKHILK [compound 3661]: the Activity under setting [6] is given as 1, the Activity under setting [4] was 1 and the Activity under setting [7] is given as 1.

Regarding GKWMKLLKHILK [compound 3652], the Activity runs as follows: under setting [6], 1; under setting [4], 1; under setting [7], 1.

With GKWMSLLKHILK [compound 3649], the Activity under setting [6] is on record as 1, the Activity under setting [4] is 1 and the Activity under setting [7] is given as 1.

Regarding GKWMSLLKHIWK [compound 3655], the Activity is, setting by setting: under setting [6], 1; under setting [4], 1; under setting [7], 1.

For the sequence GKWMSLLKHWLK [compound 3656], the Activity reads like this: under setting [6], 1; under setting [4], 1; under setting [7], 1.

As to GKWMSLLKKILK [compound 3651], the Activity was 1 under setting [6], 1 under setting [4] and 1 under setting [7].

For the sequence GKWMSLWKHILK [compound 3657], the Activity under setting [6] is 1, the Activity under setting [4] is listed as 1 and the Activity under setting [7] is recorded as 1.

As to GKWSKILGHLIR [compound 3641], the Activity under setting [6] was 1, the Activity under setting [4] is listed as 1 and the Activity under setting [7] is 1.

For GKWSKILGKLIR [compound 3644], the Activity is 1 under setting [6], 1 under setting [4] and 1 under setting [7].

Regarding “GLASFLGKALKAGLKIGSHLLGGAPQQ [satpdb10480]”, the Activity is, setting by setting: under setting [3], 0; under setting [4], 0.

In the case of GLFAVIKKVAAVIKKL [compound 4120], the Activity is reported as 1 under setting [6], 1 under setting [4] and 1 under setting [7].

As to GLFAVIKKVAAVIRRL [compound 4129], the Activity is, setting by setting: under setting [6], 1; under setting [4], 1; under setting [7], 1.

For the sequence GLFAVIKKVAKVIKKL [compound 4138], the Activity is recorded as 1 under setting [6], 1 under setting [4] and 1 under setting [7].

For the sequence GLFAVIKKVASVIKKL [compound 4111], the Activity is given as 1 under setting [6], 1 under setting [4] and 1 under setting [7].

Regarding GLFDIAKKVIGVIGSL [compound 1270], the Activity reads like this: under setting [6], 1; under setting [4], 1; under setting [7], 1.

On to GLFDIIKKIAESF [compound 1252], for which the Activity is given as 1 under setting [6], 1 under setting [4] and 1 under setting [7].

Regarding GLFDIVKKIAGHIVSSI [compound 1297], the Activity runs as follows: under setting [6], 1; under setting [4], 1; under setting [7], 1.

Regarding GLFDIVKKVVGAIGSL [compound 4407], the Activity runs as follows: under setting [3], 1; under setting [8], 1; under setting [9], 1; under setting [10], 1.

With GLFDIVKKVVGTLAGL [compound 4409], the Activity runs as follows: under setting [3], 1; under setting [8], 1; under setting [9], 1; under setting [10], 1.

On to GLFDVIAKVASVIKKL [compound 4093], for which the Activity is 1 under setting [6], 1 under setting [4] and 1 under setting [7].

In the case of GLFDVIKAVASVIGGL [compound 4057], the Activity under setting [6] is given as 1, the Activity under setting [4] is given as 1 and the Activity under setting [7] was 1.

With GLFDVIKKVAAVIGGL [compound 4066], the Activity is 1 under setting [6], 1 under setting [4] and 1 under setting [7].

Regarding GLFDVIKKVASVIGGL [compound 1421], the Activity by setting is: under setting [6], 1; under setting [4], 1; under setting [7], 1.

In the case of GLFDVIKKVASVIKGL [compound 4075], the Activity is reported as 1 under setting [6], 1 under setting [4] and 1 under setting [7].

For the sequence GLFDVIKKVASVIKKL [compound 4084], the Activity is, setting by setting: under setting [6], 1; under setting [4], 1; under setting [7], 1.

For GLFKVIKKVAKVIKKL [compound 4156], the Activity is reported as 1 under setting [6], 1 under setting [4] and 1 under setting [7].

With GLFKVIKKVASVIGGL [compound 4147], the Activity was 1 under setting [6], 1 under setting [4] and 1 under setting [7].

Take “GLFSKFNKKKIKSGLIKIIKTAGKEAGLEALRTGIDVIGCKIKGEC [satpdb11080]”: the Activity is, setting by setting: under setting [3], 0; under setting [4], 0.

With “GLFSKFVGKGIKNFLIKGVKHIGKEVGMDVIRVGIDVAGCKIKGVC [satpdb10682]”, the Activity is 0 under setting [3] and 0 under setting [4].

For “GLFTLIKGAAKLIGKTVPKKQARLGMNLWLVKLPTNVKT [satpdb12795]”, the Activity is 0 under setting [5] and 0 under setting [1].

On to GLFVGLAKVAAHNNPAIAEHFQA [compound 4390], for which the Activity is given as 1 under setting [3], 1 under setting [8], 1 under setting [9] and 1 under setting [10].

Turning to GLFVGVLAKVAAHVVPAIAEHF [compound 4391], the Activity by setting is: under setting [3], 1; under setting [8], 1; under setting [9], 1; under setting [10], 1.

Regarding GLKEIFKAGLGSLVKGIAAHVAS [satpdb14561], the Activity runs as follows: under setting [1], 0; under setting [2], 0.

As to GLLDIVKKVVGAFGSL [compound 4414], the Activity runs as follows: under setting [3], 1; under setting [8], 1; under setting [9], 1; under setting [10], 1.

As for GLLGLLGSVVSHVVPAIVGHF [compound 4416], the Activity is reported as 1 under setting [3], 1 under setting [8], 1 under setting [9] and 1 under setting [10].

As for GLLGPLLKIAAKVGSNLL [compound 4417], the Activity under setting [3] is on record as 1, the Activity under setting [8] is 1, the Activity under setting [9] is recorded as 1 and the Activity under setting [10] was 1.

With GLLGPLLKIAKKVGSNLL [satpdb10622], the Activity is, setting by setting: under setting [6], 0; under setting [1], 0; under setting [2], 0.

For GLLGSIFGAGKKIACALSGLC [satpdb11926], the Activity is, setting by setting: under setting [5], 0; under setting [4], 0.

In the case of GLLKRIKTLL [2MJQ NMR - A 1-10], the Activity is, setting by setting: under setting [7], 0; under setting [10], 0.

As to “GLLPCAESCVYIPCLTTVIGCSCKSKVCYKN [compound 4423]”, the Activity is on record as 1 under setting [3], 1 under setting [8], 1 under setting [9] and 1 under setting [10].
